# Data taken from patent US20090105251A1, “Renin inhibitors” (priority 2007, published 2009).
# Target: T1, Recombinant human renin (Homo sapiens, UniProt P00797)
# T1 construct: isolate the active form (residues 67-406); made in house
# T1 sequence (P00797 67-406): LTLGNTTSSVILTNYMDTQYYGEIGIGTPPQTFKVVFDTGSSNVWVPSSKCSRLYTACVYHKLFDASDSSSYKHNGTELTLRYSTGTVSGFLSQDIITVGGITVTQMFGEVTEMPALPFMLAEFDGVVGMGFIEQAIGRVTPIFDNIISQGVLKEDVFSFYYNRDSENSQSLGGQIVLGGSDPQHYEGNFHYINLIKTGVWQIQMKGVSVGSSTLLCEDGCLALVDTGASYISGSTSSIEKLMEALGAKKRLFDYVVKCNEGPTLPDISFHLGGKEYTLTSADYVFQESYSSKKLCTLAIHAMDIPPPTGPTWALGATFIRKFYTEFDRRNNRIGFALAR
# Assay: In vitro enzymatic activity assay of renin inhibitors (fluorogenic peptide substrate)
# Assay type: biochemical
# Settings: recombinant human renin 3 nM, 1 μM substrate QXL520/HiLyteFluo488 peptide, pH 7.4, 37° C., fluorescence; values given as ranges; read-out: IC50 of Exemplified Compounds Against Renin, IC50
# Text: Test compounds in varying concentrations may be reacted with recombinant human renin in the presence of substrate, e.g., QXL520-γ-Abu-Ile-His-Pro-Phe-His-Leu-Val-Ile-His-Thr-Lys (HiLyteFluo488)-Arg-OH (Anaspec, San Jose, Calif.). The reaction can be followed kinetically using fluorescence (excitation λ=485 nm; emission λ=538 nm). Inhibition constants (IC50) may be calculated by non-linear curve fitting of the compound concentrations and fluorescence intensities to the standard IC50 equation.
# Solutions of test compounds in varying concentrations (≦2 mM final concentration) are prepared in dimethyl sulfoxide (DMSO) and then diluted into assay buffer comprising 50 mM Hepes, 1 mM EDTA, 1 mM DTT, 0.1 mg/ml BSA, 0.01% Brij35, pH 7.4. Alternatively, the assay can be performed with a high BSA concentration, wherein the buffer contains an additional 2% BSA.
# Recombinant human renin (3 nM final concentration) is added to the dilutions and pre-incubated with the compounds for 10 minutes at 37° C. As described in Examples A-C above, human renin can be obtained by expressing preprorenin (residue 1-406) in mammalian cells, treating the prorenin (residues 24-406) contained in the culture supernatant with trypsin, and isolate the active form (residues 67-406). After pre-incubation, the reaction is initiated with 1 μM of substrate QXL520-γ-Abu-Ile-His-Pro-Phe-His-Leu-Val-Ile-His-Thr-Lys (HiLyteFluo488)-Arg-OH (Anaspec, San Jose, Calif.). The final DMSO in the assay is 5%. The total volume of the reaction mixture is 20 μL, which can be placed on Greiner 384-well small volume plates.
# Renin activity may be determined via fluorescence (excitation λ=485 nm; emission λ=538 nm), e.g., on a Molecular Devices SPECTROmax GEMINI XPS. The fluorescence intensity is determined upon the addition of substrate and determined again after incubation at 37° C. for one hour. The fluorescence intensity of a blank (no inhibition) using vehicle alone is also determined. Renin activity is linearly proportional to the change in fluorescence observed (final−initial).
# The percent inhibition of renin at a given compound concentration is defined as:
# 100%×[1−(Fcompound/Fblank)]
# where Fcompound is the observed fluorescence at a given concentration of test compound and Fblank is the observed fluorescence in the presence of vehicle alone.
# The pIC50 value (negative log of the molar concentration of the compound that produces 50% inhibition) of a test compound is calculated by non-linear least squares curve fitting of the equation:
# Percent Inhibition=100%/(1+(10^−pIC50/10^log [I]))
# to percent inhibition versus compound concentration. The 50% inhibitory concentration (IC50) of a test compound is calculated by raising 10 to the negative pIC50 (10^−pIC50).
row,IC50,Compound
1,1 to 50 µM,"Cc1nn(C)c(C(=O)N2CCNC[C@H]2Cc2ccccc2)c1-c1ccccc1Oc1ccccc1 [Example 13, ((R)-2-benzylpiperazin-1-yl)(1,3-dimethyl-4-(2-phenoxyphenyl)-1H-pyrazol-5-yl)methanone]"
2,1 to 50 µM,"Cc1cc2cc(C(=O)N3CCNC[C@H]3Cc3ccccc3)n(Cc3ccccc3)c2s1 [Example 34, (R)-(6-benzyl-2-methyl-6H-thieno[2,3-b]pyrrol-5-yl)(2-benzylpiperazin-1-yl)methanone]"
3,50 to 100 µM,"O=C(c1nccn1-c1ccccc1C(F)(F)F)N1CCNC[C@H]1Cc1ccccc1 [Example 8, ((R)-2-benzylpiperazin-1-yl)(1-(2-(trifluoromethyl)phenyl)-1H-imidazol-2-yl)methanone]"
4,1 to 50 µM,"CC1(C)Cc2cccc(C(=O)N3CCNC[C@H]3Cc3ccccc3)c2O1 [Example 35, (R)-(2-benzylpiperazin-1-yl)(2,2-dimethyl-2,3-dihydrobenzofuran-7-yl)methanone]"
5,1 to 50 µM,"O=C(c1ccccc1Cc1ccccc1)N1CCNC[C@H]1Cc1ccccc1 [Example 21, (R)-(2-benzylphenyl)(2-benzylpiperazin-1-yl)methanone]"
6,1 to 50 µM,"O=C(c1cc(-c2ccc(Cl)cc2)cs1)N1CCNC[C@H]1Cc1ccccc1 [Example 36, (R)-(2-benzylpiperazin-1-yl)(4-(4-chlorophenyl)thiophen-2-yl)methanone]"
7,1 to 50 µM,"O=C(c1ccccc1)c1ccccc1C(=O)N1CCNC[C@H]1Cc1ccccc1 [Example 22, (R)-(2-benzoylphenyl)(2-benzylpiperazin-1-yl)methanone]"
8,1 to 50 µM,"O=C(c1ccsc1-c1ccccc1CN1CCOCC1)N1CCNC[C@H]1Cc1ccccc1 [Example 41, ((R)-2-benzylpiperazin-1-yl)(2-(2-(morpholinomethyl)phenyl)-thiophen-3-yl)methanone]"
9,1 to 50 µM,"O=C(c1ccccc1OCc1ccccc1)N1CCNC[C@H]1Cc1ccccc1 [Example 23, (R)-(2-(benzyloxy)phenyl)(2-benzylpiperazin-1-yl)methanone]"
10,1 to 50 µM,"O=C(c1nc(-c2cccnc2)sc1-c1ccccc1)N1CCNC[C@H]1Cc1ccccc1 [Example 30, (R)-(2-benzylpiperazin-1-yl)(5-phenyl-2-(pyridin-3-yl)thiazol-4-yl)methanone]"
11,1 to 50 µM,"O=C(c1ccsc1-c1ccccc1-c1ccccc1)N1CCNC[C@H]1Cc1ccccc1 [Example 19, ((R)-2-benzylpiperazin-1-yl)(2-(biphenyl-2-yl)-thiophen-3-yl)-methanone]"
12,50 to 100 µM,"Cc1noc(-c2ccccc2)c1C(=O)N1CCNC[C@H]1Cc1ccccc1 [Example 29, (R)-(2-benzylpiperazin-1-yl)(3-methyl-5-phenylisoxazol-4-yl)methanone]"
13,> 100 µM,"O=C(C1CC1c1ccccc1)N1CCNCC1Cc1ccccc1 (stereo in doubt) [Example 2, ((S)-2-benzylpiperazin-1-yl)(2-phenylcyclopropyl)methanone]"
14,1 to 50 µM,"O=C(c1ccccc1-c1ccc(F)cc1)N1CCNC[C@H]1Cc1ccccc1 [Example 31, (R)-(2-benzylpiperazin-1-yl)(4′-fluorobiphenyl-2-yl)methanone]"
15,1 to 50 µM,"Cc1oc(-c2ccccc2)nc1Cn1nc(C(=O)N2CCNC[C@H]2Cc2ccccc2)c2ccccc21 [Example 37, (R)-(2-benzylpiperazin-1-yl)(1-((5-methyl-2-phenyloxazol-4-yl)methyl)-1H-indazol-3-yl)methanone]"
16,1 to 50 µM,"O=C(c1ccc(-c2ccccc2Oc2ccccc2)s1)N1CCNC[C@H]1Cc1ccccc1 [Example 44, (R)-(2-benzylpiperazin-1-yl)(5-(2-phenoxyphenyl)thiophen-2-yl)methanone]"
17,1 to 50 µM,"O=C(c1ccccc1-c1ccccc1Cl)N1CCNC[C@H]1Cc1ccccc1 [Example 5, ((R)-2-benzylpiperazin-1-yl)(2′-chlorobiphenyl-2-yl)methanone]"
18,1 to 50 µM,"CC(=O)NCc1cccnc1Oc1ccccc1-c1ccsc1C(=O)N1CCNC[C@H]1Cc1ccccc1 [Example 40, N-((2-(2-(2-((R)-2-benzylpiperazine-1-carbonyl)thiophen-3-yl)phenoxy)pyridin-3-yl)methyl)acetamide]"
19,1 to 50 µM,"O=C(c1cccn1-c1ccccc1Oc1ccccc1)N1CCNC[C@H]1Cc1ccccc1 [Example 42, ((R)-2-benzylpiperazin-1-yl)(1-(2-phenoxyphenyl)-1H-pyrrol-2-yl)methanone]"
20,1 to 50 µM,"O=C(c1cc(-c2ccccc2Oc2ccccc2)cs1)N1CCNC[C@H]1Cc1ccccc1 [Example 43, (R)-(2-benzylpiperazin-1-yl)(4-(2-phenoxyphenyl)thiophen-2-yl)methanone]"
21,1 to 50 µM,"O=C(c1ccc(-c2ccccc2Oc2ccccc2)o1)N1CCNC[C@H]1Cc1ccccc1 [Example 45, (R)-(2-benzylpiperazin-1-yl)(5-(2-phenoxyphenyl)furan-2-yl)methanone]"
22,1 to 50 µM,"O=C(c1sccc1-c1cnn(Cc2ccccc2)c1)N1CCNC[C@H]1Cc1ccccc1 [Example 18, (R)-(3-(1-benzyl-1H-pyrazol-4-yl)thiophen-2-yl)(2-benzylpiperazin-1-yl)methanone]"
23,1 to 50 µM,"O=C(c1nnc(-c2ccccc2-c2ccccc2)o1)N1CCNC[C@H]1Cc1ccccc1 [Example 46, (R)-(2-benzylpiperazin-1-yl)(5-(biphenyl-2-yl)-1,3,4-oxadiazol-2-yl)methanone]"
24,1 to 50 µM,"N#Cc1cccnc1Oc1ccccc1-c1ccsc1C(=O)N1CCNC[C@H]1Cc1ccccc1 [Example 11, 2-(2-(2-((R)-2-benzylpiperazine-1-carbonyl)thiophen-3-yl)phenoxy)nicotinonitrile]"
25,1 to 50 µM,"O=C(c1ncoc1-c1ccccc1)N1CCNC[C@H]1Cc1ccccc1 [Example 7, (R)-(2-benzylpiperazin-1-yl)(5-phenyloxazol-4-yl)methanone]"
26,1 to 50 µM,"CCn1nc(C)c(-c2ccccc2Oc2ccccc2)c1C(=O)N1CCNC[C@H]1Cc1ccccc1 [Example 14, ((R)-2-benzylpiperazin-1-yl)(1-ethyl-3-methyl-4-(2-phenoxyphenyl)-1H-pyrazol-5-yl)methanone]"
27,< 1 µM,"O=C(c1sccc1-c1ccccc1Oc1ccccc1)N1CCNC[C@H]1Cc1ccccc1 [Example 1, ((R)-2-benzylpiperazin-1-yl)(3-(2-phenoxyphenyl)thiophen-2-yl)methanone]"
28,1 to 50 µM,"O=C1CC(C(=O)N2CCNC[C@H]2Cc2ccccc2)CN1C(c1ccccc1)c1ccccc1 (stereo partly drawn) [Example 24, 1-benzhydryl-4-((R)-2-benzylpiperazine-1-carbonyl)pyrrolidin-2-one]"
29,1 to 50 µM,"O=C(c1ccnn1-c1ccccc1)N1CCNC[C@H]1Cc1ccccc1 [Example 6, (R)-(2-benzylpiperazin-1-yl)(1-phenyl-1H-pyrazol-5-yl)methanone]"
